From US20120270875A1, “PYRIMIDINE AMIDE COMPOUNDS” (priority 2011, published 2012)
pIC50: −log10 of the molar value.

Tests used:
sLFA-1/ICAM-1 = sLFA-1/ICAM-1 (Homo sapiens, UniProt P05107+P20701, DEL701-769); assay: sLFA-1/ICAM-1 ELISA; assay type: binding; settings: sLFA-1 coated plates, 5dICAM-Fc binding, ELISA; read-out: LFA-1/ICAM (IC50)
Procedure, shortened: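 Plates coated with sLFA-1 or Mac-1 (2.0 ug/ml) in Mn2+ buffer (1 mM MnCl2, 20 mM HEPES pH 7.2); compounds (0.45 nM-3 uM, 1% DMSO) preincubated 1 h, then 5dICAM-Fc (27 ng/ml) bound 2 h. Bound ICAM-Fc detected with HRP anti-human IgG and TMB, absorbance 450 nm.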

Mac-1/ICAM-1 = Mac-1/ICAM-1 (Homo sapiens, UniProt P05107+P11215); assay: Mac-1/ICAM-1 ELISA; settings: Mac-1 coated plates, 5dICAM-Fc binding
Method: sLFA-1/ICAM-1 ELISA and Mac-1/ICAM-1 ELISA
Plates were coated with either 50 μl/well of 2.0 ug/ml solution of sLFA-1 or Mac-1 receptor in divalent cation buffer (1 mM MnCl2, 0.14M NaCl, 20 mM HEPES pH 7.2) at 4° C. overnight. Two hundred fifty μl of blocking buffer (1% BSA in divalent cation buffer) was added to each well 1 hour at 37° C. Plates were washed 3 times with wash buffer (TBS/0.05% Tween-20/1 mM MnCl2). The compound to be tested was solubilized in DMSO. A series of 1:3 dilutions were performed to achieve a concentration range of 0.45 nM-3 uM. Fifty μl of binding buffer (0.5% BSA in divalent cation buffer)/1% DMSO and 50 μl of the solutions to be tested were added to the appropriate wells and incubated for 1 hour. Fifty μl of 5dICAM-Fc (27 ng/ml) was added to the appropriate wells and 50 μl binding buffer was added to non-specific binding wells and incubated for 2 hours and washed. One hundred μl of 1:4000 HRP-goat anti-huIgG was added to each well and incubated for 1 hour and washed. One hundred μl of 1:1 TMB solution was added to each well and developed for 20 min at room temperature. Color development was stopped by adding 100 μl H3PO4 to each well. Absorbance was measured at 450 nm.

[1] = test system: PBMC's from two healthy donors; assay: Human Mixed Lymphocyte Reaction (hMLR); assay type: cell-based; settings: 3H-thymidine incorporation, read-out: human MLR (IC50)
Method: Human Mixed Lymphocyte Reaction (hMLR)
PBMC's were isolated from two healthy donors by Ficoll gradient. Cells were resuspended with 4 mL assay media and counted with a Coulter Counter. Both cell populations were resuspended to 1×10^7/mL. Stimulator cells were irradiated for 2.5 min (2000 RAD) in cesium irradiator. 5×10^5 cells were added to duplicate wells of the plate. Included were quadruplicate wells receiving responder cells alone and stimulator cells alone. The compound to be tested was solubilized in DMSO. A series of 1:3 dilutions were performed to achieve a concentration range of 0.45 nM-3 uM. One hundred μl of the solutions to be tested were added to the cell plate (100 μl of 2% DMSO/media added to control wells). Plates were then incubated for 2.5 days at 37° C. with 5% CO2. Plates were pulsed with 50 μl/well 3H-thymidine at 0.5 uCi/well then incubated for 6 hours at 37° C. with 5% CO2. Cells were harvested using Cell Harvester (TomTec) and counted on TopCount (Perkin Elmer).

Mac-1/ICAM-1, sequence (P05107 23-769, other chains not shown): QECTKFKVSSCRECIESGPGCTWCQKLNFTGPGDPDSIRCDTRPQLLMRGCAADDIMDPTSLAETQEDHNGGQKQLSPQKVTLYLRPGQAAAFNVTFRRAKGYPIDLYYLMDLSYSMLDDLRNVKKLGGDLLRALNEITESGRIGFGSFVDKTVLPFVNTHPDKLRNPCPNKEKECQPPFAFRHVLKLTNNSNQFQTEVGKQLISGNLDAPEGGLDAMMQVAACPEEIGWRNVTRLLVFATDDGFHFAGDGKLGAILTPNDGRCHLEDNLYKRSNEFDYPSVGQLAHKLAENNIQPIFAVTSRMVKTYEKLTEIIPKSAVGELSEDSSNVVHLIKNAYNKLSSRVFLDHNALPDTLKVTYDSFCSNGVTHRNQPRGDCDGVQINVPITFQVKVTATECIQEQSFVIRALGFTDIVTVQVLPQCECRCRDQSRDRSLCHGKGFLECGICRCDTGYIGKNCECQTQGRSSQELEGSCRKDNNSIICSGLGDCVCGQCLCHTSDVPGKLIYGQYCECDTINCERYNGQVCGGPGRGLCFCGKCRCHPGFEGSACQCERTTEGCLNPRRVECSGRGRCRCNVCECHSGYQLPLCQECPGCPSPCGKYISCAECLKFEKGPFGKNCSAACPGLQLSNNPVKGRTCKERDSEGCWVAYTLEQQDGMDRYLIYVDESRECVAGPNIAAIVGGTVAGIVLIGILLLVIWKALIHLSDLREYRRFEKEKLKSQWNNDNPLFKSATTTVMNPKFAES
sLFA-1/ICAM-1, sequence (P20701 26-1090 limits assumed, stated change not applied): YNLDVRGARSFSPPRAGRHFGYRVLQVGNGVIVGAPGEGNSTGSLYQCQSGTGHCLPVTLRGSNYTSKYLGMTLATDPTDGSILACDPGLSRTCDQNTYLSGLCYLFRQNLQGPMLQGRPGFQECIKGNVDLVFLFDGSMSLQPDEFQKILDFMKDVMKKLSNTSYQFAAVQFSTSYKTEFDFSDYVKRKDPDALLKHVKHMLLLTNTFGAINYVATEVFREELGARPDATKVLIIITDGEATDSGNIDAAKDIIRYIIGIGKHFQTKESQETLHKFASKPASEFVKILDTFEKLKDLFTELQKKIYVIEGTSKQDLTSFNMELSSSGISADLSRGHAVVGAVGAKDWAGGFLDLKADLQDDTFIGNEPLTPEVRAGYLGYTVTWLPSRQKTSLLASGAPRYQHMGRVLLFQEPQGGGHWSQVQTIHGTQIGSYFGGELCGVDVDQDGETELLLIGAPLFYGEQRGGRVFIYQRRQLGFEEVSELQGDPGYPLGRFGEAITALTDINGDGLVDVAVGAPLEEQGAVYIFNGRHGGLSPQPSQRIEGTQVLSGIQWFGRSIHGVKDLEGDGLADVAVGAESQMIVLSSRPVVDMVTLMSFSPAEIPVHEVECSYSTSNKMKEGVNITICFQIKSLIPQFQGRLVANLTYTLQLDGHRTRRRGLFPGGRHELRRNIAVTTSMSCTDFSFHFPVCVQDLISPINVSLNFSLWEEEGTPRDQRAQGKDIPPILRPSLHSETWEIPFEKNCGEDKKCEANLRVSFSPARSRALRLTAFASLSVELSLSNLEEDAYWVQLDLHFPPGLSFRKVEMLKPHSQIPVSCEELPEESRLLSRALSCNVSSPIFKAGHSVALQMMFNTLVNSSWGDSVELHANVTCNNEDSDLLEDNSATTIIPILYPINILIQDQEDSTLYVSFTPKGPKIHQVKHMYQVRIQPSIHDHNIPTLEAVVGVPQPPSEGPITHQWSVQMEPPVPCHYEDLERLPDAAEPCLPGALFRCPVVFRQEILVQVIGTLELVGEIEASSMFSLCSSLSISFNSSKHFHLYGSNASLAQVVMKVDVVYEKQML
sLFA-1/ICAM-1, sequence (P05107 23-700 limits assumed, stated change not applied): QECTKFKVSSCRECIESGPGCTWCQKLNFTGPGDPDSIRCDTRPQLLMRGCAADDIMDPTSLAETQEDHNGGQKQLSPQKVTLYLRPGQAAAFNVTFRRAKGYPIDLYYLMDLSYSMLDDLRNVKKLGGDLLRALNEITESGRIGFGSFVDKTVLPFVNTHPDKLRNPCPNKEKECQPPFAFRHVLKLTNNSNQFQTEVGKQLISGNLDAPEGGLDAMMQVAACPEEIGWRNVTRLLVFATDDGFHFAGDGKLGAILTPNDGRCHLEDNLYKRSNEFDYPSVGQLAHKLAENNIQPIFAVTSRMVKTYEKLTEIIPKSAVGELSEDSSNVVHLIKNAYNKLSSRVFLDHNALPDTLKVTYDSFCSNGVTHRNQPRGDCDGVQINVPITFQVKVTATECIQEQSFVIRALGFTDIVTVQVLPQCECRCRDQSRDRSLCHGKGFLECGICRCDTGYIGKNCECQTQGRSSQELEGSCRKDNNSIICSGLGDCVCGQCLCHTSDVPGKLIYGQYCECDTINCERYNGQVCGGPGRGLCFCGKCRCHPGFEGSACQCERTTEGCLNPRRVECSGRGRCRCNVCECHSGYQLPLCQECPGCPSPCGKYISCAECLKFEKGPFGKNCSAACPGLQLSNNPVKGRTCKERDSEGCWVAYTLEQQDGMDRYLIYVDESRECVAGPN

Structure (SMILES) | pIC50 (sLFA-1/ICAM-1) | pIC50 (Mac-1/ICAM-1) | pIC50 [1]
Cc1nc(OCCCc2cccc(O)c2)nc(C)c1C(=O)N[C@@H](CNC(=O)c1cccs1)C(=O)O [Example 3, (S)-2-({2-[3-(3-hydroxy-phenyl)-propoxy]-4,6-dimethyl-pyrimidine-5-carbonyl}-amino)-3-[(thiophene-2-carbonyl)-amino]-propionic acid] | 7.49 | 7.24 | 6.24
Cc1nc(CCCCc2cccc(O)c2)nc(C)c1C(=O)N[C@@H](CNC(=O)c1cccs1)C(=O)O [Example 1, (S)-2-({2-[4-(3-hydroxy-phenyl)-butyl]-4,6-dimethyl-pyrimidine-5-carbonyl}-amino)-3-[(thiophene-2-carbonyl)-amino]-propionic acid] | 7.14 | 6.36 | 5.35
Cc1nc(NCCCc2cccc(O)c2)nc(C)c1C(=O)N[C@@H](CNC(=O)c1cc(O)cc(O)c1)C(=O)O [Example 81] | 7.92 | 7.41 | 7.14
Cc1nc(NCCCc2cccc(O)c2)nc(C)c1C(=O)N[C@@H](CNC(=O)c1cccc(O)c1)C(=O)O [Example 83] | 7.55 | 7.60 | 6.86
